The assay has as its target T1, human p38 kinase alpha (Homo sapiens, UniProt Q16539).
T1 construct: The coding region of the human p38α cDNA was obtained by PCR-amplification from RNA isolated from the human monocyte cell line THP.1; made in house; host or cells: E. coli DH10B
As to the kind of experiment: In vitro p38 kinase inhibition analysis (PHAS-I 32P-ATP or EGFRP 33P-ATP format). In kind it is biochemical. As to conditions: read-out: p38α Kinase Inhibition (IC50 in μM). On the procedure: The ability of compounds to inhibit human p38 kinase alpha was evaluated using one of two in vitro assay methods. In the first method, activated human p38 kinase alpha phosphorylates a biotinylated substrate, PHAS-I (phosphorylated heat and acid stable protein-insulin inducible), in the presence of gamma ^32P-ATP (^32P-ATP). PHAS-I was biotinylated before the assay, and provided a means of capturing the substrate which was phosphorylated during the assay. p38 Kinase was activated by MKK6. Compounds were tested in 10 fold serial dilutions over the range of 100 μM to 0.001 μM using 1% DMSO. Each concentration of inhibitor was tested in triplicate.
All reactions were carried out in 96 well polypropylene plates. Each reaction well contained 25 mM HEPES pH 7.5, 10 mM magnesium acetate, and 50 μM unlabeled ATP. […] Activated human p38 kinase alpha was used at 1 μg per 50 μl reaction volume, representing a final concentration of 0.3 μM. Gamma ^32P-ATP was used to follow the phosphorylation of PHAS-I. ^32P-ATP has a specific activity of 3000 Ci/mmol, and was used at 1.2 μCi per 50 μl reaction volume. The reaction proceeded either for one hr or overnight at 30° C.
Following incubation, 20 μl of reaction mixture was transferred to a high capacity streptavidin coated filter plate (SAM-streptavidin-matrix, Promega) prewetted with phosphate buffered saline. The transferred reaction mix was allowed to contact the streptavidin membrane of the Promega plate for 1-2 min. […] Filter plates were air dried and 20 μl of scintillant was added. The plates were sealed and counted.
A second assay format was alternatively employed. This assay is based on p38 kinase alpha being induced phosphorylation of EGFRP (epidermal growth factor receptor peptide, a 21 mer) in the presence of ^33P-ATP. Compounds were tested in 10 fold serial dilutions over the range of 100 μM to 0.001 μM in 10% DMSO. Each concentration of inhibitor was tested in triplicate. Compounds were evaluated in 50 μl reaction volumes in the presence of 25 mM HEPES pH 7.5, 10 mM magnesium acetate, 4% glycerol, 0.4% bovine serum albumin, 0.4 mM DTT, 50 μM unlabeled ATP, 25 μg EGFRP (200 μM), and 0.05 uCi gamma ^33P-ATP. Reactions were initiated by addition of 0.09 μg of activated, purified human GST-p38 kinase alpha. Activation was carried out using GST-MKK6 (5:1,p38:MKK6) for one hr at 30° C. in the presence of 50 μM ATP. Following incubation for 60 min at room temperature, the reaction was stopped by addition of 150 μl of AG 1×8 resin in 900 mM sodium formate buffer, pH 3.0 (1 volume resin to 2 volumes buffer). The mixture was mixed three times with pipetting. Afterward, the resin was allowed to settle. A total of 50 μl of clarified solution head volume was transferred from the reaction wells to Microlite-2 plates. 150 μl of Microscint 40 was then added to each well of the Microlite plate, and the plate was sealed, mixed, and counted.

Setting [1] is: Table 1, compounds of Examples 1-28, one of two in vitro assay methods.
Setting [2] is: Table 1, compounds of Examples 1-28, one of two in vitro assay methods, Trifluoroacetate.
[3] abbreviates: Table 1, compounds of Examples 1-28, one of two in vitro assay methods, Hydrochloride Hydrate.
[4] abbreviates: Table 1, compounds of Examples 1-28, one of two in vitro assay methods, Phosphate Dihydrate.
The mark [5] stands for this setting: Table 2, additional pyrazole compounds, Examples 56-169.

Where a name gives a salt, the structure may show the parent alone. Read-outs that look alike come from different tables or passages of the source.

T1 sequence (Q16539 whole entry): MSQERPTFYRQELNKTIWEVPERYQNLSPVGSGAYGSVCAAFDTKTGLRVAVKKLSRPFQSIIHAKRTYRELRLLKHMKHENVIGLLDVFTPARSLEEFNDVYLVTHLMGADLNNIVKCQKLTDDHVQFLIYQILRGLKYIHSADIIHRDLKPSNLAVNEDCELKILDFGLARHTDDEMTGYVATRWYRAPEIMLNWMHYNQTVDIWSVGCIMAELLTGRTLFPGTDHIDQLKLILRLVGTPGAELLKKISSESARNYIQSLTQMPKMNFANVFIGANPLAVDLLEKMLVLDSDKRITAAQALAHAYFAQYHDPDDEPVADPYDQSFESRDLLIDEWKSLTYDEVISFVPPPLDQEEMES

A word on the IC50: it is the concentration that inhibits the measured activity by half. Turning to `C[C@@H](N[C@H]1CC[C@H](c2[nH]nc(-c3ccc(Cl)cc3)c2-c2ccncn2)CC1)c1ccccc1` [Example 1, 4-[3-(4-chlorophenyl)-4-pyrimidin-4-yl-1H-pyrazol-5-yl]-N-[(1R)-1-phenylethyl]-trans-cyclohexanamine], the concentration for half-maximal inhibition (IC50) under setting [1] came to 0.0314 µM. Consider `C[C@@H](N[C@H]1CC[C@H](c2[nH]nc(-c3ccc(Cl)cc3)c2-c2ccncn2)CC1)c1ccccc1` [Example 2, 4-[3-(4-chlorophenyl)-4-pyrimidin-4-yl-1H-pyrazol-5-yl]-N-[(1R)-1-phenylethyl]-trans-cyclohexanamine 4-methylbenzenesulfonate], for which the IC50 (Table 1, compounds of Examples 1-28, one of two in vitro assay methods, 4-methylbenzenesulfonate) stood at 0.0279 µM. Regarding `Clc1ccc(-c2n[nH]c([C@H]3CC[C@H](NC4CCCCC4)CC3)c2-c2ccncn2)cc1` [Example 3, 4-[3-(4-chlorophenyl)-4-pyrimidin-4-yl-1H-pyrazol-5-yl]-N-cyclohexyltrans-cyclohexanamine], the IC50 under setting [1] turned out to be 0.0452 µM.

In the case of `Clc1ccc(-c2n[nH]c([C@H]3CC[C@H](NC4CCCCC4)CC3)c2-c2ccncn2)cc1` [Example 4], the IC50 under setting [1] amounted to 0.0379 µM. As for `C[C@@H](N[C@H]1CC[C@H](c2[nH]nc(-c3ccc(Cl)cc3)c2-c2ccncn2)CC1)c1ccc(F)cc1` [Example 5, 4-[3-(4-chlorophenyl)-4-pyrimidin-4-yl-1H-pyrazol-5-yl]-N-[(1R)-1-(4-fluorophenyl)ethyl]-trans-cyclohexanamine], the IC50 under setting [1] worked out at 0.0232 µM. The same measure, in the same setting: to `O[C@H]1CC[C@H](c2[nH]nc(-c3ccc(Cl)cc3)c2-c2ccncn2)CC1` [Example 6, 4-[3-(4-chlorophenyl)-4-pyrimidin-4-yl-1H-pyrazol-5-yl]-trans-cyclohexanol] belongs 0.289 µM. `Clc1ccc(-c2n[nH]c([C@H]3CC[C@H](N4CCCCC4)CC3)c2-c2ccncn2)cc1` [Example 7, 4-[3-(4-chlorophenyl)-5-(4-piperidin-1-yl-cyclohexyl)-1H-pyrazol-4-yl]pyrimidine Trifluoroacetate]: under setting [2], the IC50 was 0.0238 µM. Take `Clc1ccc(-c2n[nH]c([C@H]3CC[C@H](N4CCCCC4)CC3)c2-c2ccncn2)cc1` [Example 8, 4-[3-(4-chlorophenyl)-5-(4-piperidin-1-ylcyclohexyl)-1H-pyrazol-4-yl]pyrimidine Hydrochloride Hydrate]: the IC50 under setting [3] came to 0.0582 µM.

For the compound `OC[C@H]1CCCN1[C@H]1CC[C@H](c2[nH]nc(-c3ccc(Cl)cc3)c2-c2ccncn2)CC1` [Example 9, ((2R)-1-{4-[3-(4-chlorophenyl)-4-pyrimidin-4-yl-1H-pyrazol-5-yl]cyclohexyl)pyrrolidin-2-yl)methanol Trifluoroacetate], the IC50 under setting [2] turned out to be 0.0285 µM. Regarding `OC[C@H]1CCCN1[C@H]1CC[C@H](c2[nH]nc(-c3ccc(Cl)cc3)c2-c2ccncn2)CC1` [Example 10, ((2R)-1-{4-[3-(4-chlorophenyl)-4-pyrimidin-4-yl-1H-pyrazol-5yl]cyclohexyl}pyrrolidin-2-yl)methanol Hydrochloride Hydrate], the IC50 under setting [3] was found to be 0.0354 µM. On to `CN(CCO)[C@H]1CC[C@H](c2[nH]nc(-c3ccc(Cl)cc3)c2-c2ccncn2)CC1` [Example 11, 2-[{4-[3-(4-chlorophenyl)-4-pyrimidin-4-yl-1 H-pyrazol-5-yl]cyclohexyl)(methyl)amino]ethanol Trifluoroacetate Hydrate], for which the concentration for half-maximal inhibition (IC50) (Table 1, compounds of Examples 1-28, one of two in vitro assay methods, Trifluoroacetate Hydrate) turned out to be 0.0271 µM. For `CN(CCO)[C@H]1CC[C@H](c2[nH]nc(-c3ccc(Cl)cc3)c2-c2ccncn2)CC1` [Example 12, 2-[{4-[3-(4-chlorophenyl)-4-pyrimidin-4-yl-1H-pyrazol-5-yl]cyclohexyl)(methyl)amino]ethanol Hydrochloride Hydrate], the IC50 under setting [3] was determined as 0.0379 µM.

Take `CC(C)N[C@H]1CC[C@H](c2[nH]nc(-c3ccc(F)c(F)c3)c2-c2ccncn2)CC1` [Example 13, 4-[3-(3,4-difluorophenyl)-4-pyrimidin-4-yl-1H-pyrazol-5-yl]-N-isopropylcyclohexanamine]: the IC50 under setting [1] amounted to 0.115 µM. The same measure, in the same setting: to `CC(C)N[C@H]1CC[C@H](c2[nH]nc(-c3ccc(F)c(C(F)(F)F)c3)c2-c2ccncn2)CC1` [Example 14, 4-{3-[4-fluoro-3-(trifluoromethyl)phenyl]-4-pyrimidin-4-yl-1H-pyrazol-5-yl}-N-isopropylcyclohexanamine] belongs 0.0723 µM; to `CC(C)(O)[C@H]1CC[C@H](c2[nH]nc(-c3ccc(Cl)cc3)c2-c2ccncn2)CC1` [Example 16, 2-{4-[3-(4-chlorophenyl)-4-pyrimidin-4-yl-1H-pyrazol-5-yl]cyclohexyl)propan-2-ol], 0.0926 µM; to `OC1CCCC1N1CCC(c2[nH]nc(-c3ccc(Cl)cc3)c2-c2ccncn2)CC1` (centres unmarked) [Example 17, 2-{4-[3-(4-chlorophenyl)-4-pyrimidin-4-yl-1H-pyrazol-5-yl]piperidin-1-yl}cyclopentanol Fumarate], 0.0189 µM. The same measure, in the same setting: to `CC(c1ccc(C(C)(C)O)cc1)N1CCC(c2[nH]nc(-c3ccc(Cl)cc3)c2-c2ccncn2)CC1` (centres unmarked) [Example 18, 2-[4-(1-{4-[3-(4-chlorophenyl)-4-pyrimidin-4-yl-1H-pyrazol-5-yl]piperidin-1-yl}ethyl)phenyl]propan-2-ol] belongs 0.0106 µM; to `Fc1ccc(CN2CCC(c3[nH]nc(-c4ccc(Cl)cc4)c3-c3ccncn3)CC2)cc1` [Example 19, 4-{3-(4-chlorophenyl)-5-[1-(4-fluorobenzyl)piperidin-4-yl]-1H-pyrazol-4-yl}pyrimidine], 0.102 µM. Take `O=C(COP(=O)(O)O)N1CCC(c2[nH]nc(-c3ccc(Cl)cc3)c2-c2ccncn2)CC1` [Example 22, 2-{4-[3-(4-chlorophenyl)-4-pyrimidin-4-yl-1H-pyrazol-5-yl]piperidin-1-yl}-2-oxoethyl Dihydrogen Phosphate]: under setting [1], the half-maximal inhibitory concentration (IC50) was determined as 0.00607 µM. Take `O=C(COP(=O)(O)O)N1CCC(c2[nH]nc(-c3ccc(Cl)cc3)c2-c2ccncn2)CC1` [Example 23, mono-sodium 2-{4-[3-(4-chlorophenyl)-4-pyrimidin-4-yl-1H-pyrazol-5-yl]piperidin-1-yl}-2-oxoethyl Dihydrogen Phosphate Dihydrate]: under setting [4], the half-inhibitory concentration (IC50) came to 0.0681 µM. The same measure, in the same setting: to `O=C(COP(=O)(O)O)N1CCC(c2[nH]nc(-c3ccc(Cl)cc3)c2-c2ccncn2)CC1` [Example 24, di-sodium 2-{4-[3-(4-chlorophenyl)-4-pyrimidin-4-yl-1H-pyrazol-5-yl]piperidin-1-yl}-2-oxoethyl Dihydrogen Phosphate Dihydrate] belongs 0.0608 µM.

On to `CN(C)CC(=O)OCC(=O)N1CCC(c2[nH]nc(-c3ccc(Cl)cc3)c2-c2ccncn2)CC1` [Example 25, 2-{4-[3-(4-chlorophenyl)-4-pyrimidin-4-yl-1H-pyrazol-5-yl]piperidin-1-yl}-2-oxoethyl N,N-dimethylglycinate Hydrochloride], for which the IC50 under setting [1] came out at 0.0118 µM. Same read-out and setting: the same measure for `Fc1cc(Cl)ccc1-c1n[nH]c(C2CCNCC2)c1-c1ccncn1` [Example 26, 4-[3-(4-chloro-2-fluorophenyl)-5-piperidin-4-yl-1H-pyrazol-4-yl]pyrimidine]: 0.0641 µM; for `O=C(CO)N1CCC(c2[nH]nc(-c3ccc(Cl)cc3F)c2-c2ccncn2)CC1` [Example 27, 2-{4-[3-(4-chloro-2-fluorophenyl)-4-pyrimidin-4-yl-1H-pyrazol-5-yl]piperidin-1-yl}-2-oxoethanol]: 0.209 µM. As to `CC(C)C(N)C(=O)OCC(=O)N1CCC(c2[nH]nc(-c3ccc(Cl)cc3)c2-c2ccncn2)CC1` (centres unmarked) [Example 56], the IC50 under setting [5] is 0.0402 µM.

As for `CC(C)C(N)C(=O)OCC(=O)N1CCC(c2[nH]nc(-c3ccc(Cl)cc3)c2-c2ccncn2)CC1` (centres unmarked) [Example 57], under setting [5], the IC50 is 0.0285 µM.
